# Literature values, collected in patent US20250031694A1, “AGRICULTURAL CHEMICAL COMPOSITION AND METHOD FOR PRODUCING SAME” (MITSUI CHEMICALS CROP & LIFE SOLUTIONS, INC., priority 2021, published 2025).
# Conditions: FAMIC agrochemical abstract
SMILES,water solubility (25° C.),water solubility (20° C.)
CN1COCN(Cc2cnc(Cl)s2)/C1=N\[N+](=O)[O-] [thiamethoxam],4100 µg/mL,–
C=CCOC1=NS(=O)(=O)c2ccccc21 [probenazole],–,36.6 µg/mL
CC(=O)Oc1c(C)c(C)nc2c(F)cc(C(C)(C)C)cc12 [tebufloquin],–,20.2 µg/mL
CCCOCCN(C(=O)CCl)c1c(CC)cccc1CC [pretilachlor],74 µg/mL,–
